Test results from US9708325B2, “Sulfonimidoylpurinone compounds and derivatives for the treatment and prophylaxis of virus infection” (Hoffmann-La Roche Inc., priority 2015, dated 2017).

How the values were obtained:
[1] = GSH adduct screening assay; assay type: in vitro ADME, rat and human; design: key: No flag: No Flag: no GSH adduct formation observed when compared to control (DMSO); conditions: 20 μM, RLM and HLM, 60 minutes
Method: The formation of reactive metabolites is an unwanted drug property because of the idiosyncratic clinical adverse effect. GSH adduct formation is used to evaluate the formation of reactive metabolites in vitro. Positive controls were Diclofenac, Troglitazone, Nefazodone and mGluR5. Solvent control was DMSO.
All compounds including positive and solvent control were incubated using a 96-deep-well plate (Eppendorf) at 20 μM (addition of 1 μL of 10 mM DMSO stock solution) in 450 μL of 0.1 M sodium phosphate buffer at pH 7.4 containing rat liver microsomes (RLM) and human liver microsomes (HLM). Microsomal protein concentration is 1 mg/mL. Pipetting was performed using a TECAN pipetting robot. The buffer was prepared at room temperature by combining 2.62 g NaH2PO4.1H2O and 14.43 g Na2HPO4.2H2O dissolved in H2O (Millipore, >18 MΩ) to a weight of 1000 g (pH 7.4). After 5 minutes of pre-incubation at 37° C. the reaction was started by adding 50 μL of buffer containing GSH (100 mM) and NADPH (20 mM). Fresh stock solutions of GSH and NADPH were prepared straight before each experiment. The final concentrations were […] for GSH and 1 mM for NADPH. After 60 minutes of incubation at 37° C. (shaking at 800 rpm) the reaction is quenched with 500 μL of cold acetonitrile and centrifuged at 5000×g at 25° C. for 11 minutes. Before LC-MS/MS analysis the supernatant was split to two fractions, 450 μL and 400 each followed by evaporation using a N2 stream at 35° C. to a volume of approximately […].
Sample clean-up and chromatography of analytes were performed on-line by a column-switching set-up of two HPLC columns. From each sample 50 μL were injected (Shimadzu SilHTC) and loaded with water containing 0.1% formic acid onto a trapping column (Waters Oasis HLB 2.1×10 mm, 25 μm) with a flow rate of 0.3 mL/min. After 1.5 min the trapped analytes were then flushed (included a change in flow direction on the trapping column) onto an analytical column (Waters Atlantis T3 2.1×100 mm, 3 μm) with a total flow of 0.2 mL/min starting with 95/5% water containing 0.1% formic acid/acetonitrile. The fraction of acetonitrile was increased to 20% acetonitrile between 2 and 2.5 minutes, to 70% at 10 minutes and to 98% at 11 minutes. After 12 minutes the analytical column was equilibrated to start conditions (5% acetonitrile). […] The total running time was 14 min per sample.
A triple quadrupole-linear ion trap mass spectrometer 4000 Qtrap equipped with an electrospray ionization source (Turbo V) was used, both from Applied Biosystems/MDS Sciex. Based on a published method of Dieckhaus et al. (2005) a precursor ion survey scan (PreIS) method was used to detect GSH-conjugates in negative ion mode. Briefly, as survey scan ions (400 to 900 amu within 2 seconds) are scanned for precursors of m/z 272 amu, the ion spray voltage was −4200 V, the source temperature 500° C., nitrogen was used as curtain and collision gas. If the parent molecule exceeds a molecular mass of 500 the scan range was changed to 500 amu to 1000 amu within 2 seconds. For signals in the survey scan exceeding 7500 cts (that was approximately 5 times of the background signal), enhanced resolution scan and enhanced product ion scan were triggered which allowed isotope determination and confirmation of a positive GSH adduct by the presence of diagnostic fragment ions. Further instrument settings were as following: Curtain gas: 30 psi, CAD gas: 10 psi Gas 1: 30 psi, Gas 2: 50 psi, declustering potential: −70 V, entrance potential: −10 V, collision energy: −24 V, and cell exit potential −15 V. Data acquisition was performed using Analyst 1.4.2, data analysis, i.e. sample control (solvent) comparisons were performed with Metabolite ID 1.3 (Applied Biosystems/MDS Sciex). (reference: Dieckhaus, C. M., Fernandez-Metzler, C. L., King, R., Krolikowski, P. H., and Baillie, T. A. (2005). Negative ion tandem mass spectrometry for the detection of glutathione conjugates. Chem Res Toxicol 18, 630-638).

[2] = Metabolic stability in human liver microsomes; conditions: 1 μM test compound, 0.5 mg/mL microsomal protein; 6.15 mL/min/kg is the limitation of assay sensitivity
Summary of the method: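 Test compound at 1 μM with 0.5 mg/mL microsomal protein in 100 mM potassium phosphate, pH 7.4, 37 °C, 10 min preincubation, reaction started with NADPH regenerating system. Sampled at 0, 3, 6, 9, 15 and 30 min, quenched with cold ACN, remaining parent by LC-MS/MS. No-NADPH controls at 0 and 30 min.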

| SMILES | GSH results [1] | Human Liver Microsome Clearance [2] [mL/min/kg] |
| --- | --- | --- |
| CCCS(=N)(=O)c1nc(N)c2[nH]c(=O)n(Cc3ccccc3)c2n1 (single isomer, unassigned) [Example 4-A, 6-Amino-9-benzyl-2-(propylsulfonimidoyl)-7H-purin-8-one] | No flag | – |
| CCCS(=N)(=O)c1nc(N)c2[nH]c(=O)n(Cc3ccccc3)c2n1 (stereo not drawn) [Example 4, 6-Amino-9-benzyl-2-(propylsulfonimidoyl)-7H-purin-8-one] | No flag | <6.15 |
| CCS(=N)(=O)c1nc(N)c2[nH]c(=O)n(Cc3ccc(Cl)cc3)c2n1 (single isomer, unassigned) [Example 70-A, 6-Amino-9-[(4-chlorophenyl)methyl]-2-(ethylsulfonimidoyl)-7H-purin-8-one] | No flag | <6.15 |
| CCCS(=N)(=O)c1nc(N)c2[nH]c(=O)n(Cc3ccc(C(=O)O)cc3)c2n1 (stereo not drawn) [Example 39, 4-[[6-Amino-8-oxo-2-(propylsulfonimidoyl)-7H-purin-9-yl]methyl]benzoic acid] | No flag | <6.15 |
| CCCS(=N)(=O)c1nc(N)c2[nH]c(=O)n(Cc3ccccc3)c2n1 (single isomer, unassigned) [Example 4-B, 6-Amino-9-benzyl-2-(propylsulfonimidoyl)-7H-purin-8-one] | No flag | – |
| CCS(=N)(=O)c1nc(N)c2[nH]c(=O)n(Cc3ccc(C)cc3)c2n1 (single isomer, unassigned) [Example 71-A, 6-Amino-2-(ethylsulfonimidoyl)-9-(p-tolylmethyl)-7H-purin-8-one] | No flag | <6.15 |
| CCCS(=N)(=O)c1nc(N)c2[nH]c(=O)n(Cc3ccc(Cl)cc3)c2n1 (stereo not drawn) [Example 9, 6-Amino-9-[(4-chlorophenyl)methyl]-2-(propylsulfonimidoyl)-7H-purin-8-one] | No flag | – |
| CCCS(=N)(=O)c1nc(N)c2[nH]c(=O)n(Cc3ccc(C)cc3)c2n1 (single isomer, unassigned) [Example 29-A, 6-Amino-2-(propylsulfonimidoyl)-9-(p-tolylmethyl)-7H-purin-8-one] | No flag | <6.15 |
| CCCS(=N)(=O)c1nc(N)c2[nH]c(=O)n(Cc3ccc(C)nc3)c2n1 (stereo not drawn) [Example 34, 6-Amino-9-[(6-methyl-3-pyridyl)methyl]-2-(propylsulfonimidoyl)-7H-purin-8-one] | No flag | <6.15 |
| CCS(=N)(=O)c1nc(N)c2[nH]c(=O)n(Cc3ccc(Cl)cc3)c2n1 (single isomer, unassigned) [Example 70-B, 6-Amino-9-[(4-chlorophenyl)methyl]-2-(ethylsulfonimidoyl)-7H-purin-8-one] | No flag | <6.15 |
| CCCS(=N)(=O)c1nc(N)c2[nH]c(=O)n(Cc3ccc(F)c(F)c3)c2n1 (stereo not drawn) [Example 27, 6-Amino-9-(3,4-difluorophenylmethyl)-2-(propylsulfonimidoyl)-7H-purin-8-one] | No flag | – |
